# Where two headings read alike, the source gives them in different places.
# Legend:
# aromatase = target: T1, aromatase (Homo sapiens, UniProt P11511); test: Aromatase inhibiting capacity in JEG-3 cells (3H-17β-estradiol formation from 3H-androstenedione); format: cell-based; settings: 4 h incubation, FIG. 1
# T1 construct: 800 μl cell suspension (1 million cells); endogenous in cells; host or cells: JEG-3 human choriocarcinoma cells
# T1 sequence (P11511 1-503): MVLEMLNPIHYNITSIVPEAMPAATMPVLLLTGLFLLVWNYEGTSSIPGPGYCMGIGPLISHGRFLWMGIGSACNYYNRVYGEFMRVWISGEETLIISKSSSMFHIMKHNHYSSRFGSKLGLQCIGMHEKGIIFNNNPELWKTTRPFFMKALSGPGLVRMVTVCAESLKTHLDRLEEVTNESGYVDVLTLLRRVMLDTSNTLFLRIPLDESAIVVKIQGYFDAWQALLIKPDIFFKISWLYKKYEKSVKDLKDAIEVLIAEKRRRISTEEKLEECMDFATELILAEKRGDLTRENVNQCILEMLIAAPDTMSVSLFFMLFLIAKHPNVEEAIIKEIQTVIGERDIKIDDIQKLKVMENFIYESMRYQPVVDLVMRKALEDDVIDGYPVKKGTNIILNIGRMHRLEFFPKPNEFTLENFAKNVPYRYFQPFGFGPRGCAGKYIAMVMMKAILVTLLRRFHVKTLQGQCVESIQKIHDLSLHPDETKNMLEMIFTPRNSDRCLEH
# Protocol: The effects of HMR and structurally related lignans (enterolactone, enterodiol and 7-hydroxyenterolactone) were studied on formation of ^3H-17β-estradiol from ^3H-andostenedione in JEG-3 cells, human choriocarcinoma cell line. […] Cells were maintained in DMEM containing 10% fetal calf serum (FCS). The incubation mixture contained 50 μl ^3H-androst-4-ene, 3,17-dione (0.5 nM), 50 μl unlabelled androstenedione (0.5 nM), 100 μl test compounds (10 mM) and 800 μl cell suspension (1 million cells). After the incubation for 4 h, unlabelled carriers (androstenedione, testosterone, 17β-estradiol and estrone) were added. The steroids were extracted twice with 3.0 ml dichloromethane. […] The column system consisted of a guard column followed by a C18 150×3.9 mm ID analytical column (Technopak 10 C18 HPLC Technology; Wellington House, Cheshire, UK). The mobile phase was acetonitrile/water (35/65) and the flow rate was 1.2 ml/min. For in-line detection of the radioactive metabolites, the eluent of the HPCL column was continuously mixed with liquid scintillant and then monitored with in-line radioactivity detector.
# [1] = tested on: tert-butylhydroperoxide-induced lipid peroxidation (t-BuOOH-LP) in rat liver microsomes; test: Inhibition of tert-butylhydroperoxide-induced lipid peroxidation (t-BuOOH-LP), chemiluminescence; format: biochemical
# Protocol: Inhibition of lipid peroxidation was evaluated on the basis of their potency to inhibit tert-butylhydroperoxide-induced lipid peroxidation (t-BuOOH-LP) in rat liver microsomes in vitro (Ahotupa et al. 1997). The test for the t-BuOOH-LP was carried out as follows: The buffer (50 mM sodium carbonate, pH 10.2, with 0.1 mM EDTA) was pipetted in a volume of 0.8 ml in the luminometer cuvette. Twenty microliters of diluted liver microsomes, final concentration 1.5 mg protein/ml, was added, followed by […] of luminol (0.5 mg/ml) and test chemicals. The test compounds were added to incubation mixtures in a small volume diluted in ethanol or dimethylsulphoxide (2% of incubation volume), and the lipid peroxidation potency was compared to that of the vehicle (ethanol or dimethyl sulphoxide). The reaction was initiated by 0.05 ml of 0.9 mM t-BuOOH at 33° C. Chemiluminescence was measured for about 45 min at 1 min cycles, and the area under curve (integral) was calculated. Chemiluminescence measurements were carried out using a Bio-Orbit 1251 Luminometer (Bio-Orbit, Turku, Finland) connected to a personal computer using dedicated software for the assays.
# [2] = Superoxide anion scavenging (xanthine-xanthine oxidase system, chemiluminescence); format: biochemical; settings: read-out: Superoxide anion scavenging, IC-50
# Protocol: Superoxide anion scavenging method was based on the superoxide anion produced in controlled conditions by xanthine-xanthine oxidase system and detection of the generated reactive oxygen species by luminometer (Ahotupa et al., 1997). The ability of test compounds to decrease the chemiluminescence was evaluated. IC-50 concentration (concentration which prevented the chemiluminescence by 50%) was calculated.
# [3] = tested on: uterine growth of immature rats; test: Immature rat uterotropic test; format: in vivo; settings: methodological control for non-estrogen-stimulated uterus
# Protocol: The estrogenicity HMR was evaluated by the uterotropic assay in immature rats which was performed as described earlier (Jordan et al. 1977), with the exception of treatment time which was 7 days instead of 3 days in the reference study. The treatment time was longer because of the expected weak estrogenicity of the test compound. The treatment of immature rats with an aromatase inhibitor (MPV-2213 ad), which prevents biosynthesis of estradiol, was used as a methodological control for non-estrogen-stimulated uterus.
# [4] = tested on: low density lipoprotein (LDL) oxidation; test: Inhibition of LDL oxidation (CuCl2-induced, absorbance at 234 nm); format: biochemical; settings: CuCl2, 3 hrs at +37° C.; read-out: Inhibition of LDL oxidation, IC-50
# Protocol: Inhibition of LDL oxidation was estimated as described by Ahotupa et al, 1996. Shortly: LDL was isolated by precipitation with buffered heparin. After resuspendation in phosphate buffer, 20 mM CuCl2 was added and the mixture was incubated for 3 hrs at +37° C. After this, LDL lipids were extracted with chloroform-methanol, dried under nitrogen, redissolved in cyclohexane and analyzed spectrophotometrically at 234 nm. The intensity of absorbance is indicative of LDL oxidation. To test the ability of different compounds to prevent LDL oxidation, the compounds were added to the incubation mixture prior addition of CuCl2. Possible interference of test compounds with the assay procedure was excluded by measuring the absorption at 234 nm before and after the incubation period.
# MCF-7 cells = settings: Mousavi and Adlercreutz 1992; cited from earlier work
# mouse uterine weight = settings: Setchell et al. 1981; cited from earlier work
# [5] = tested on: antiestrogen-sensitive DMBA-induced breast cancer; settings: supplementation of a high-fat diet, rat; Serraino and Thompson, Thompson et al.; cited from earlier work
# [6] = tested on: chemically induced aberrant crypts in rat colon; settings: diet supplementation; Serraino and Thompson 1992, Jenab and Thompson 1996; cited from earlier work
# uterine weight = settings: feeding during pregnancy and lactation to rats; effect not evident at later stages; Tou et al. 1998; cited from earlier work
# [7] = Table 3 comparison with known antioxidants, read-out: Inhibition of lipid peroxidation, IC-50
# [8] = lipid peroxidation inhibition test, rat liver microsomes, Table 2, read-out: Antioxidative capacity (t-BuOOH-LP) IC50
compound,measurement,setting,value
O=C1OC[C@H](Cc2cccc(O)c2)[C@H]1[C@@H](O)c1cccc(O)c1 [7-hydroxyenterolactone],Inhibition of aromatization (3H-17β-estradiol formation from 3H-androstenedione),aromatase,no inhibitory effects
"COc1ccc(O)c(C(C)(C)C)c1 [BHA, Butylated hydroxyanisol]",IC50,[1]; [7],1.1 µM
same,IC50,[2],0.015 mM
"Cc1cc(C(C)(C)C)c(O)c(C(C)(C)C)c1 [BHT, Butylated hydroxytoluene]",IC50,[1]; [7],15.3 µM
same,IC50,[2]; value in mM,> 1 mM
"N#Cc1ccc(C(C(O)Cc2ccc(F)cc2)n2cncn2)cc1 (stereo not drawn) [MPV-2213 ad, reference compound]",Effect on increase of uterine weight,[3],prevented the increase of uterine weight
Cc1c(C)c2c(c(C)c1O)CCC(C)(C(=O)O)O2 (stereo not drawn) [TROLOX],IC50,[1]; [7],0.02 µM
same,IC50,[4],2.7 µM
same,IC50,[2],0.025 mM
"OCC(Cc1cccc(O)c1)C(CO)Cc1cccc(O)c1 (stereo not drawn) [enterodiol, 2,3-bis-(3′-hydroxybenzyl)-butane-1,4-diol]",IC50,[1]; [8],12.7 µM
same,Inhibition of aromatization (3H-17β-estradiol formation from 3H-androstenedione),aromatase,noninhibitory
"O=C1OCC(Cc2cccc(O)c2)C1Cc1cccc(O)c1 (stereo not drawn) [enterolactone, 2,3-bis-(3′-hydroxybenzyl)-butyrolactone]",IC50,[1]; [8],15.9 µM
same,Inhibition of aromatization (3H-17β-estradiol formation from 3H-androstenedione),aromatase,dose-dependent inhibition
same,Estrogenic potency in MCF-7 cells,MCF-7 cells,weak estrogenic potency
same,Estrogenic response in mouse uterine weight,mouse uterine weight,no estrogenic response
"COc1ccc(-c2oc3cc(O)cc(O)c3c(=O)c2O)cc1 [kaempferide, 3,5,7-trihydroxy-4′-methoxy-flavone]",IC50,[1]; [8],0.5 µM
"O=c1c(O)c(-c2ccc(O)cc2)oc2cc(O)cc(O)c12 [kaempferol, 3,4′,5,7-tetrahydroxy-flavone]",IC50,[1]; [8],0.9 µM
"O=c1c(O)c(-c2ccc(O)c(O)c2)oc2cc(O)cc(O)c12 [quercetin, 3,3′,4′,5,7-pentahydroxy-flavone]",IC50,[1]; [8],0.4 µM
secoisolariciresinol-diglycoside [SDG],Development of DMBA-induced breast cancer,[5],prevented the development
same,Formation of chemically induced aberrant crypts in rat colon,[6],inhibited the formation
same,Uterine weight,uterine weight,increased the uterine weight at weaning

# Source: patent US7005447B2, “Food product comprising hydroxymatairesinol” (Hormos Nutraceutical Oy Ltd., priority 1999, dated 2006)
